Data: patent US20230295234A1, “ANTIMICROBIAL PEPTIDOMIMETICS” (SPEXIS AG, priority 2020, published 2023)
Where two headings read alike, the source gives them in different places. Bridge positions count the residues as written; N and C are the ends. Square brackets hold non-standard residues; d marks the D form. Peptide text beside a SMILES is read from it. Pro(4R-NH2) = N[C@H]1CN[C@H](C(=O)O)C1; Gly(N-2-aminoethyl) = NCCNCC(=O)O; Hyp = O=C(O)[C@@H]1C[C@@H](O)CN1; Cha = N[C@@H](CC1CCCCC1)C(=O)O; Pen = CC(C)(S)[C@H](N)C(=O)O; dDab = NCC[C@@H](N)C(=O)O; Nle = CCCC[C@H](N)C(=O)O; Dab = NCC[C@H](N)C(=O)O; Nlys = NCCCCNCC(=O)O

Key:
[1] = test system: Escherichia coli ATCC 25922; conditions: ATCC 25922
Method in brief: (§1)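 Two-fold serial dilutions of peptide, in water with polysorbate 80 (0.002% final), met bacteria adjusted to 0.5 McFarland then diluted to about 5×10^5 CFU/mL. Medium was cation-adjusted Mueller-Hinton II broth; peptide stocks were 1 mg/mL in sterile water.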

[2] = test system: Escherichia coli MCR-1 Af 45
Method in brief: as §1

[3] = test system: Klebsiella pneumoniae SSI3010; conditions: SSI3010
Method in brief: as §1

[4] = test system: human red blood cells (hRBC); assay: Hemolysis of human red blood cells; type: cell-based; conditions: red cells of human, 1 h
Method in brief: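 PBS-washed human red blood cells (20% v/v) were incubated with peptide at 200 μg/mL for 1 h at 37 °C with shaking. Supernatant OD was read at 540 nm after 8-fold dilution. Hemolysis is expressed as percent of the water control.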

[5] = Mueller-Hinton broth II, 18-20 hours at 35° C.

Row | Compound | Escherichia coli ATCC 25922 MIC [1] | Escherichia coli MCR-1 Af 45 MIC ([2]; MCR-1 Af 45) | Klebsiella pneumoniae SSI3010 MIC [3] | Hemolysis at 0.2 g/L [4] | Escherichia coli MCR-1 Af 45 MIC [2, 5]
1 | CCCC[C@H](NC(=O)[C@H](CCCNC(=N)N)NC(=O)[C@H](CCN)NC(=O)[C@@H]1CSSC(C)(C)[C@H](NC(=O)[C@H](Cc2ccc(O)cc2)NC(=O)[C@@H](NC(=O)[C@@H](NC(=O)CN(CCN)C(=O)[C@@H](N)C(C)C)[C@@H](C)CC)[C@@H](C)CC)C(=O)N[C@@H](CC(N)=O)C(=O)N[C@@H](CCCNC(=N)N)C(=O)N[C@@H](CCN)C(=O)N[C@@H]([C@@H](C)O)C(=O)N[C@H](CCN)C(=O)N[C@@H](CCCCN)C(=O)N1)C(=O)O [Example 137] (HELM PEPTIDE1{V.[NCCN(CC(=O)[*:2])[*:1]].I.I.Y.[Pen].N.R.[Dab].T.[NCC[C@@H](N[*:1])C(=O)[*:2]].K.C.[Dab].R.[Nle]}$PEPTIDE1,PEPTIDE1,6:R3-13:R3$$$V2.0) | 0.125 µg/mL | – | 0.25 µg/mL | 0% | 0.0625 µg/mL
2 | CCCC[C@H](NC(=O)[C@H](CCCNC(=N)N)NC(=O)[C@H](CCN)NC(=O)[C@@H]1CSSC(C)(C)[C@H](NC(=O)[C@H](Cc2ccc(O)cc2)NC(=O)[C@@H](NC(=O)[C@@H](NC(=O)CN(CCN)C(=O)[C@@H](NC(=O)CNCCN)C(C)C)[C@@H](C)CC)[C@@H](C)O)C(=O)N[C@@H](CC(N)=O)C(=O)N[C@@H](CCCNC(=N)N)C(=O)N[C@@H](CCN)C(=O)N[C@@H]([C@@H](C)O)C(=O)N[C@H](CCN)C(=O)N[C@@H](CCCCN)C(=O)N1)C(=O)O [Example 12, Ndab-Val-Ndab-Ile-Thr-Tyr-Pen-Asn-Arg-Dab-Thr-^DDab-Lys-Cys-Dab-Arg-Nle] (H-[Gly(N-2-aminoethyl)]V[Gly(N-2-aminoethyl)]ITY[Pen]NR[Dab]T[dDab]KC[Dab]R[Nle]-OH; disulfide 7-14) | 0.25 µg/mL | 0.0625 µg/mL | 0.25 µg/mL | 0% | –
3 | CC[C@H](C)[C@H](NC(=O)[C@@H](NC(=O)[C@@H]1CCCN1C(=O)[C@@H](O)C(C)C)[C@@H](C)CC)C(=O)N[C@@H](Cc1ccc(O)cc1)C(=O)N[C@H]1CSSC[C@@H](C(=O)N[C@@H](CCN)C(=O)N[C@@H](CCCNC(=N)N)C(=O)N[C@@H](Cc2ccc(O)cc2)C(=O)O)NC(=O)[C@H](CCCCN)NC(=O)[C@@H](CCN)NC(=O)[C@H]([C@@H](C)O)NC(=O)[C@H](CCN)NC(=O)[C@H](CCCNC(=N)N)NC(=O)[C@H](CC(N)=O)NC1=O [Example 146] (HELM PEPTIDE1{[CC(C)[C@H](O)C(=O)[*:2]].P.I.I.Y.C.N.R.[Dab].T.[NCC[C@@H](N[*:1])C(=O)[*:2]].K.C.[Dab].R.Y}$PEPTIDE1,PEPTIDE1,6:R3-13:R3$$$V2.0) | 0.5 µg/mL | – | 0.5 µg/mL | 0% | 0.5 µg/mL
4 | CC[C@H](C)[C@H](NC(=O)[C@@H]1C[C@@H](O)CN1C(=O)[C@@H](NC(=N)N)C(C)C)C(=O)N[C@H](C(=O)N[C@@H](Cc1ccc(O)cc1)C(=O)N[C@@H]1C(=O)N[C@@H](CC(N)=O)C(=O)N[C@@H](CCCNC(=N)N)C(=O)N[C@@H](CCN)C(=O)N[C@@H](CO)C(=O)N[C@H](CCN)C(=O)N[C@@H](CCCCN)C(=O)N[C@H](C(=O)N[C@@H](CCN)C(=O)N[C@@H](CCCN)C(=O)N[C@@H](Cc2ccc(O)cc2)C(=O)O)CSSC1(C)C)[C@@H](C)O [Example 198] (HELM PEPTIDE1{[CC(C)[C@H](NC(=N)N)C(=O)[*:2]].[Hyp].I.T.Y.[Pen].N.R.[Dab].S.[NCC[C@@H](N[*:1])C(=O)[*:2]].K.C.[Dab].[Orn].Y}$PEPTIDE1,PEPTIDE1,6:R3-13:R3$$$V2.0) | 0.125 µg/mL | – | 0.125 µg/mL | 0% | 0.0625 µg/mL

The next lines start with results.

Row | Escherichia coli ATCC 25922 MIC [1] | Escherichia coli MCR-1 Af 45 MIC ([2]; MCR-1 Af 45) | Klebsiella pneumoniae SSI3010 MIC [3] | Compound | Hemolysis at 0.2 g/L [4] | Escherichia coli MCR-1 Af 45 MIC [2, 5]
5 | 0.125 µg/mL | 0.125 µg/mL | 0.25 µg/mL | CC[C@H](C)[C@H](NC(=O)[C@@H]1C[C@@H](O)CN1C(=O)[C@@H](NC(=O)[C@@H]1C[C@@H](O)CN1C(=O)CNCCCN)C(C)C)C(=O)N[C@H](C(=O)N[C@@H](Cc1ccc(O)cc1)C(=O)N[C@@H]1C(=O)N[C@@H](CC(N)=O)C(=O)N[C@@H](CCCNC(=N)N)C(=O)N[C@@H](CCN)C(=O)N[C@@H]([C@@H](C)O)C(=O)N[C@H](CCN)C(=O)N[C@@H](CCCCN)C(=O)N[C@H](C(=O)N[C@@H](CCN)C(=O)N[C@@H](CCCNC(=N)N)C(=O)N[C@@H](Cc2ccc(O)cc2)C(=O)O)CSSC1(C)C)[C@@H](C)O [Example 42, Norn-Hyp-Val-Hyp-Ile-Thr-Tyr-Pen-Asn-Arg-Dab-Thr-^DDab-Lys-Cys-Dab-Arg-Tyr] (HELM PEPTIDE1{[NCCCNCC(=O)[*:2]].[Hyp].V.[Hyp].I.T.Y.[Pen].N.R.[Dab].T.[NCC[C@@H](N[*:1])C(=O)[*:2]].K.C.[Dab].R.Y}$PEPTIDE1,PEPTIDE1,8:R3-15:R3$$$V2.0) | 0% | –
6 | 0.125 µg/mL | 0.0625 µg/mL | 0.25 µg/mL | CC[C@H](C)[C@H](NC(=O)CN(CCCCN)C(=O)[C@@H](NC(=O)CNCCCCN)C(C)C)C(=O)N[C@H](C(=O)N[C@@H](Cc1ccc(O)cc1)C(=O)N[C@@H]1C(=O)N[C@@H](CC(N)=O)C(=O)N[C@@H](CCCNC(=N)N)C(=O)N[C@@H](CCN)C(=O)N[C@@H]([C@@H](C)O)C(=O)N[C@H](CCN)C(=O)N[C@@H](CCCCN)C(=O)N[C@H](C(=O)N[C@@H](CCN)C(=O)N[C@@H](CCCNC(=N)N)C(=O)N[C@@H](Cc2ccc(O)cc2)C(=O)O)CSSC1(C)C)[C@@H](C)CC [Example 31, Nlys-Val-Nlys-Ile-Ile-Tyr-Pen-Asn-Arg-Dab-Thr-^DDab-Lys-Cys-Dab-Arg-Tyr] (H-[Nlys]V[Nlys]IIY[Pen]NR[Dab]T[dDab]KC[Dab]RY-OH; disulfide 7-14) | 0% | –
7 | 0.25 µg/mL | 0.125 µg/mL | 0.25 µg/mL | CC[C@H](C)[C@H](NC(=O)[C@@H](NC(=O)[C@@H]1C[C@@H](N)CN1C(=O)[C@@H](NC(=O)[C@@H]1C[C@@H](N)CN1)C(C)C)[C@@H](C)CC)C(=O)N[C@@H](Cc1ccc(O)cc1)C(=O)N[C@@H]1C(=O)N[C@@H](CC(N)=O)C(=O)N[C@@H](CCCNC(=N)N)C(=O)N[C@@H](CCN)C(=O)N[C@@H]([C@@H](C)O)C(=O)N[C@H](CCN)C(=O)N[C@@H](CCCCN)C(=O)N[C@H](C(=O)N[C@@H](CCC(N)=O)C(=O)N[C@@H](CCCNC(=N)N)C(=O)N[C@@H](CC2CCCCC2)C(=O)O)CSSC1(C)C [Example 18, Pro((4R)NH2)-Val-Pro((4R)NH2)-Ile-Ile-Tyr-Pen-Asn-Arg-Dab-Thr-^DDab-Lys-Cys-Gln-Arg-Cha] (H-[Pro(4R-NH2)]V[Pro(4R-NH2)]IIY[Pen]NR[Dab]T[dDab]KCQR[Cha]-OH; disulfide 7-14) | 0% | –
8 | ≤0.03125 µg/mL | ≤0.03125 µg/mL | 0.125 µg/mL | CC[C@H](C)[C@H](NC(=O)[C@@H]1C[C@@H](N)CN1C(=O)[C@@H](NC(=O)[C@@H]1C[C@@H](O)CN1C(=O)CNCCCCN)C(C)C)C(=O)N[C@H](C(=O)N[C@@H](Cc1ccc(O)cc1)C(=O)N[C@@H]1C(=O)N[C@@H](CC(N)=O)C(=O)N[C@@H](CCCNC(=N)N)C(=O)N[C@@H](CCN)C(=O)N[C@@H]([C@@H](C)O)C(=O)N[C@H](CCN)C(=O)N[C@@H](CCCCN)C(=O)N[C@H](C(=O)N[C@@H](CCN)C(=O)N[C@@H](CCCNC(=N)N)C(=O)N[C@@H](Cc2ccc(O)cc2)C(=O)O)CSSC1(C)C)[C@@H](C)O [Example 46, Nlys-Hyp-Val-Pro((4R)NH2)-Ile-Thr-Tyr-Pen-Asn-Arg-Dab-Thr-^DDab-Lys-Cys-Dab-Arg-Tyr] (H-[Nlys][Hyp]V[Pro(4R-NH2)]ITY[Pen]NR[Dab]T[dDab]KC[Dab]RY-OH; disulfide 8-15) | 0% | –
9 | 0.25 µg/mL | 0.25 µg/mL | 0.25 µg/mL | CC[C@H](C)[C@H](NC(=O)[C@@H](NC(=O)[C@@H]1CCCN1C(=O)[C@@H](NC(=O)[C@@H]1C[C@@H](N)CN1C(=O)[C@H](CCCCN)NC(=O)[C@@H](N)CCCCN)C(C)C)[C@@H](C)CC)C(=O)N[C@@H](Cc1ccc(O)cc1)C(=O)N[C@H]1CCC(=O)NCC[C@@H](C(=O)N[C@@H](CCN)C(=O)N[C@@H](CCCNC(=N)N)C(=O)N[C@@H](Cc2ccc(O)cc2)C(=O)O)NC(=O)[C@H](CCCCN)NC(=O)[C@@H](CCN)NC(=O)[C@H]([C@@H](C)O)NC(=O)[C@H](CCN)NC(=O)[C@H](CCCNC(=N)N)NC(=O)[C@H](CC(N)=O)NC1=O [Example 133] (HELM PEPTIDE1{K.K.[N[C@@H]1C[C@@H](C(=O)[*:2])N([*:1])C1].V.P.I.I.Y.E.N.R.[Dab].T.[NCC[C@@H](N[*:1])C(=O)[*:2]].K.[Dab].[Dab].R.Y}$PEPTIDE1,PEPTIDE1,9:R3-16:R3$$$V2.0) | 0% | –
